Assay results taken from patent publication US20220000841A1, “INHIBITORS OF METALLO-BETA-LACTAMASES” (CENTRE NATIONAL DE LA RECHERCHE SCIENTIFIQUE, priority 2018, published 2022).
Read-outs that look alike come from different tables or passages of the source.

How the values were obtained:
NDM-1 = NDM-1 (Klebsiella pneumoniae, UniProt C7C422); experiment: Enzymatic assay for determination of inhibition constants, reporter substrate method, purified NDM-1; format: biochemical; settings: for Ki: isolated MBL, competitive inhibition model; for % inhibition NDM-1: at 100 μM (maximal tested concentration);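 on all read-outs here: purified enzyme activity followed as absorbance change from reporter substrate hydrolysis on a UV-Vis spectrophotometer or plate reader, 50 mM HEPES pH 7.5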
Method: (§1) The reaction rate was measured as the variation of absorbance observed upon substrate hydrolysis in a UV-Vis spectrophotometer or microplate reader at a wavelength of 300 nm (imipenem, meropenem), 260 nm (cefotaxime) or 482 nm (nitrocefin) in 50 mM HEPES buffer (pH 7.5) and in the presence of a purified MBL enzyme (such as VIM-1, VIM-2, VIM-4, NDM-1 and IMP-1, at a final concentration ranging 1-70 nM).
(§2) The inhibition constants (Ki) were determined on the basis of a model of competitive inhibition by analyzing the dependence of the ratio v0/vi (v0, hydrolysis velocity in the absence of inhibitor; vi, hydrolysis velocity in the presence of inhibitor) as a function of [I] as already described [Docquier J. D., Lamotte-Brasseur J., Galleni M., Amicosante G., Frère J. M., Rossolini G. M. (2003) J. Antimicrob. […] The slope of the plot of v0/vi vs [I], which corresponds to Km^S/(Km^S+[S])Ki (where Km^S is the Km value of the reporter substrate and [S] its concentration in the reaction mixture) and allowed the calculation of the Ki value. Alternatively, a Dixon plot analysis was carried out, by measuring the initial hydrolysis rates in the presence of variable concentrations of inhibitor and substrate.

[1] = Cell membrane integrity assay, LDH release, compound cytotoxicity; format: cell-based; settings: human, HeLa cells, 0.001 to 1.2 mM, read-out: IC50, compound concentration inducing 50% cytotoxicity (LDH release)
Method: Selected compounds were tested for their ability to induce the lysis of eukaryotic cells by measuring the release of lactate dehydrogenase enzyme (LDH) from HeLa cells, after incubating such cells for 24 hours (37° C., 5% CO2) in Dulbecco's modified Eagle medium supplemented with 10% fetal bovine serum, 4.5 mg/ml glucose and 2 mM L-glutamine in the absence and presence of the compound at concentrations ranging from 0.001 to 1.2 mM. LDH activity was determined using commercial kits (such as the CytoTox 96® Non-Radioactive Cytotoxicity Assay, Promega, Madison, Wis., U.S.A.) in the samples, containing HeLa cells incubated with the various concentrations of the assayed compound or with the solvent or buffer used to resuspend such compounds (vehicle control).
Further controls included samples containing the medium only (medium control) or in which cell lysis was induced by the addition of 9% Triton X-100 (maximum LDH release control). The percentage of cytotoxicity was computed as 100×(Sample LDH release)/(maximum LDH release). The variation of the percentage of cytotoxicity is usually dependent on the compound concentration and allowed to compute an IC50 value, corresponding to the compound concentration inducing 50% cytoxicity.

[2] = tested on: E. coli AS19 [pLBII-VIM2]; experiment: microbe, parasite or virus in culture; format: cell-based, Escherichia coli; settings: Escherichia coli, read-out: Inhibition zone diameter AS 19, difference between measured diameter and diameter without compound
Method: A] A disk-diffusion test in which the inhibitor was added (40-320 μg) to a disk containing a defined amount of a β-lactam antibiotic (such as 30 μg cefoxitin) was used to evaluate the antimicrobial activity (corresponding to the diameter of the growth inhibition zone, expressed in mm) of the combination when compared of that of the antibiotic alone.
These tests were performed on isogenic laboratory strains (such as Escherichia coli DH5a or XL-1) producing a defined MBL after its transformation with a pLB-II plasmid derivative (such as pLBII-VIM-2) [Borgianni L., Vandenameele J., Matagne A., Bini L., Bonomo R. A., Frere J. M., Rossolini G. M., Docquier J. D. (2010) Antimicrob. Agents Chemother. 54, 3197-3204] harbouring a cloned gene encoding the functional metallo-β-lactamase. Alternatively, hyperpermeable strains (such as Escherichia coli AS19) were used instead of Escherichia coli DH5α or XL-1.

VIM-2 = VIM-2 (Escherichia coli, UniProt Q5U7L7); experiment: Enzymatic assay for determination of inhibition constants, reporter substrate method, purified VIM-2; format: biochemical; settings: for % inhibition VIM-2: at 100 μM (maximal tested concentration);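 on all read-outs here: purified VIM-2 hydrolysing a reporter substrate (imipenem, meropenem, cefotaxime or nitrocefin), reaction rate read as absorbance change, HEPES 50 mM at pH 7.5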
VIM-4 = VIM-4 (Pseudomonas aeruginosa, UniProt Q8KRJ3); experiment: Enzymatic assay for determination of inhibition constants, reporter substrate method, purified VIM-4; format: biochemical; settings: at 100 μM (maximal tested concentration);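 further: purified VIM-4 (1-70 nM) in 50 mM HEPES pH 7.5, reporter substrate hydrolysis rate tracked by absorbance change (nitrocefin 482 nm, imipenem or meropenem 300 nm, cefotaxime 260 nm)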
Method: as §1, §2

IMP-1 = IMP-1 (Serratia marcescens, UniProt P52699); experiment: Enzymatic assay for determination of inhibition constants, reporter substrate method, purified IMP-1; format: biochemical; settings: for Ki: isolated MBL, competitive inhibition model;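 on all read-outs here: purified IMP-1 (1-70 nM) hydrolysing a reporter substrate, initial rates followed as absorbance change at 260, 300 or 482 nm in 50 mM HEPES pH 7.5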
Method: as §1, §2

VIM-1 = VIM-1 (Pseudomonas aeruginosa, UniProt A0A0F7KYQ8); experiment: Enzymatic assay for determination of inhibition constants, reporter substrate method, purified VIM-1; format: biochemical; settings: for Ki: isolated MBL, competitive inhibition model;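 on all read-outs here: initial hydrolysis rates of a reporter β-lactam (imipenem, meropenem, cefotaxime or nitrocefin) followed by absorbance change, purified enzyme at 1–70 nM in 50 mM HEPES pH 7.5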
Method: as §1, §2

[3] = tested on: K. pneumoniae S1-002 (blaVIM-4+); experiment: Broth microdilution MIC of meropenem in absence and presence of MBL inhibitor, S1-002; format: cell-based; settings: MBL inhibitor fixed at 32 μg/ml, Mueller-Hinton broth, duplicate
Method: (§3) This method was performed in agreement with the CLSI recommendations (document M07-A10, 2015, “Methods for Dilution Antimicrobial Susceptibility Tests for Bacteria That Grow Aerobically”).
(§4) MIC values of meropenem (MEM) were determined in duplicate in Mueller-Hinton broth as recommended by CLSI (document M07-A10, 2015), in absence and presence of a fixed concentration of MBL inhibitor (32 μg/ml).

[4] = tested on: K. pneumoniae SI-001 (blaVIM-1+); experiment: Broth microdilution MIC of meropenem in absence and presence of MBL inhibitor, SI-001; format: cell-based; settings: MBL inhibitor fixed at 32 μg/ml, Mueller-Hinton broth, duplicate
Method: as §3, §4

[5] = as listed in Table 2, read-out: Ki on VIM-2
[6] = isolated MBL, competitive inhibition model, read-out: Ki VIM-2
[7] = at 100 μM (maximal tested concentration)

NDM-1, sequence (C7C422 29-270, looked up, species assumed): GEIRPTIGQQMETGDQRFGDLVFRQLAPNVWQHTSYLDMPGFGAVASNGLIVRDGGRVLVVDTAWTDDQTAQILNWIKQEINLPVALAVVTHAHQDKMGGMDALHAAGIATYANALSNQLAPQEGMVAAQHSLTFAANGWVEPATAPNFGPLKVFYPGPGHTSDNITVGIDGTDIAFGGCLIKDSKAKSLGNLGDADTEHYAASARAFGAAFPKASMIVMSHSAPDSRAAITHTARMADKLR
IMP-1, sequence (P52699 19-246, looked up, species assumed): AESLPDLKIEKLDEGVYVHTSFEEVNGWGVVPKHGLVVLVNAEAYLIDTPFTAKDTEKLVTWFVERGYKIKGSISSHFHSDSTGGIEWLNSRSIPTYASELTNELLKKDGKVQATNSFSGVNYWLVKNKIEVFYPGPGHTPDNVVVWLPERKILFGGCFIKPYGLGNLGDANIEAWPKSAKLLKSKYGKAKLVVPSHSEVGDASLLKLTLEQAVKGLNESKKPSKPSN

Compound	Ki (NDM-1)	melting point	IC50 at 24 h [1]	zone of inhibition at 40 µg/disc [2]	Ki (VIM-2; [5])	Ki (VIM-2; [6])	% inhibition VIM-4 (VIM-4)	Ki (IMP-1)	Ki (VIM-1)	MIC potentiation of meropenem (x.log2 dilutions), K. pneumoniae S1-002 (blaVIM-4+) [3]	MIC potentiation of meropenem (x.log2 dilutions), K. pneumoniae SI-001 (blaVIM-1+) [4]	% inhibition IMP-1 (IMP-1; at 200 μM (maximal tested concentration))	% inhibition NDM-1 (NDM-1)	% inhibition IMP-1 (IMP-1; [7])	% inhibition VIM-2 (VIM-2)	% inhibition VIM-1 (VIM-1; [7])
O=C(O)c1ccccc1CCn1c(-c2ccco2)n[nH]c1=S [Compound 12, 2-{2-[3-(furan-2-yl)-5-sulfanylidene-4,5-dihydro-1H-1,2,4-triazol-4-yl]ethyl}benzoic acid]	> 100 µM	210 to 211 °C	> 1200 µM	3 mm	< 1 µM	< 1 µM	70% at 100 μM	> 100 µM								
S=c1[nH]nc(-c2ccccc2)n1CCSCc1ccccc1 [Compound 33, 4-[2-(benzylsulfanyl)ethyl]-3-phenyl-4,5-dihydro-1H-1,2,4-triazole-5-thione]	1 to 10 µM	108 to 109 °C				1 to 10 µM		> 100 µM	< 1 µM	2 log2 dilutions	3 log2 dilutions					
O=C(O)c1ccccc1CCn1c(-c2cccs2)n[nH]c1=S [Compound 13, 2-{2-[3-(thiophen-2-yl)-5-sulfanylidene-4,5-dihydro-1H-1,2,4-triazol-4-yl]ethyl}benzoic acid]	> 100 µM	195 to 196 °C	> 1200 µM	4 mm	1 to 10 µM	1 to 10 µM		> 100 µM	> 100 µM							
O=C(O)C(CSCCn1c(-c2ccccc2)n[nH]c1=S)c1ccccc1 (centres unmarked) [Compound 78, 2-Phenyl-3-[2-(3-phenyl-5-thioxo-1,4-dihydro-1,2,4-triazol-4-yl)ethylthio]-propionic acid]	1 to 10 µM					< 1 µM		10 to 100 µM	< 1 µM	2 log2 dilutions	3 log2 dilutions					
O=C(O)CCCCn1c(-c2ccccc2)n[nH]c1=S [Compound 15, 5-(3-phenyl-5-sulfanylidene-4,5-dihydro-1H-1,2,4-triazol-4-yl)pentanoic acid]	> 100 µM	176 to 177 °C		3 mm	1 to 10 µM	1 to 10 µM	85% at 100 μM		> 100 µM			60% at 200 μM				
COc1ccc(O)c(-c2n[nH]c(=S)n2CCc2ccccc2C(=O)O)c1 [Compound 4, 2-{2-[3-(2-hydroxy-5-methoxyphenyl)-5-sulfanylidene-4,5-dihydro-1H-1,2,4-triazol-4-yl]ethyl}benzoic acid]	> 100 µM	88 to 89 °C		4 mm	< 1 µM	< 1 µM	80% at 100 μM	> 100 µM	> 100 µM							
Cn1cccc1-c1n[nH]c(=S)n1CCSCc1ccccc1 [Compound 64, 4-[2-(Benzylthio)ethyl]-5-(1-methyl-1H-pyrrol-2-yl)-2,4-dihydro-1,2,4-triazole-3-thione]						< 1 µM			< 1 µM	≥4 log2 dilutions	3 log2 dilutions		75% at 100 μM	90% at 100 μM		
O=C(O)C(CCCn1c(-c2ccccc2)n[nH]c1=S)N(Cc1ccccc1)Cc1ccccc1 (centres unmarked) [Compound 68, 2-[Bis(phenylmethyl)amino]-5-(3-phenyl-5-sulfanylidene-4,5-dihydro-1H-1,2,4-triazol-4-yl)pentanoic acid]	> 100 µM						65% at 100 μM	> 100 µM	> 100 µM	2 log2 dilutions	2 log2 dilutions				65% at 100 μM	
O=C(O)C(CCCn1c(-c2ccccc2)n[nH]c1=S)N(Cc1c[nH]cn1)Cc1c[nH]cn1 (centres unmarked) [Compound 69, 2-[Bis(1H-imidazol-5-ylmethyl)amino]-5-(3-phenyl-5-sulfanylidene-4,5-dihydro-1H-1,2,4-triazol-4-yl)pentanoic acid]						< 1 µM		> 100 µM	< 1 µM	≥4 log2 dilutions	≥4 log2 dilutions		85% at 100 μM			
O=C(O)c1ccccc1CCn1c(-c2cccc(-c3ccccc3)c2)n[nH]c1=S [Compound 39, 5-(3-Biphenyl)-4-[2-(2-carboxyphenyl)ethyl]-1,2,4-triazole-3-thione]	> 100 µM					< 1 µM		> 100 µM	1 to 10 µM	≥4 log2 dilutions	3 log2 dilutions					
O=C(O)C(CCCn1c(-c2ccccc2)n[nH]c1=S)NCc1cccc(O)c1O (centres unmarked) [Compound 67]	> 100 µM						60% at 100 μM	> 100 µM		2 log2 dilutions	2 log2 dilutions				55% at 100 μM	70% at 100 μM
S=c1[nH]nc(-c2ccccc2)n1CCSCCc1ccccc1 [Compound 77, 4-[2-(2-Phenylethylsulfanyl)ethyl]-3-phenyl-4,5-dihydro-1H-1,2,4-triazole-5-thione]						1 to 10 µM			< 1 µM	≥4 log2 dilutions	3 log2 dilutions		92% at 100 μM	89% at 100 μM		
O=[N+]([O-])c1ccc(O)c(CSCCn2c(-c3ccccc3)n[nH]c2=S)c1 [Compound 76, 4-[2-(2-Hydroxy-5-Nitrobenzylsulfanyl)ethyl]-3-phenyl-4,5-dihydro-1H-1,2,4-triazole-5-thione]						< 1 µM			< 1 µM	2 log2 dilutions	≥4 log2 dilutions		77% at 100 μM	62% at 100 μM		
